Source: article PMC4858151, “Phosphorylation of Human Choline Kinase Beta by Protein Kinase A: Its Impact on Activity and Inhibition” (PLoS ONE, 2016)

Biological target: T1, choline kinase beta (CKβ) (Homo sapiens, UniProt Q9Y259)
T1 construct: gene CHKB; recombinant CKβ, in vitro phosphorylated by PKA (Ser39/Ser40)
Test: PK-LDH coupled enzyme assay, IC50 at […] choline converted to Ki
Format: biochemical

T1 sequence (Q9Y259 2-395): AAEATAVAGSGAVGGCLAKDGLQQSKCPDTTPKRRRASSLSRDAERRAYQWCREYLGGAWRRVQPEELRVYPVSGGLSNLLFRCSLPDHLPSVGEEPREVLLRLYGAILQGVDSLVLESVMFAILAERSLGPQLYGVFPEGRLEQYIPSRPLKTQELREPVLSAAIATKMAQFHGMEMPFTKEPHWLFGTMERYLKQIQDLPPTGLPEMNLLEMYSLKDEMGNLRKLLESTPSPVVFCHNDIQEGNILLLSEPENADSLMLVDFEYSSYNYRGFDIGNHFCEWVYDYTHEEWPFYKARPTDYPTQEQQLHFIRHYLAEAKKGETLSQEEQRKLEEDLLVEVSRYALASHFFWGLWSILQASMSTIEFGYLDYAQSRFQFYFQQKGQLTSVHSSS

C[N+]1(C)CCOC(O)(c2ccc(-c3ccc(C4(O)C[N+](C)(C)CCO4)cc3)cc2)C1 (stereo not shown) [HC-3, Hemicholinium-3]
Ki: 4.7 µM
